Measurements taken from patent US6046171A, “6,11-bridged erythromycin derivatives” (priority 1998, dated 2000).
≈ marks a conversion by molar mass, not a printed value.

Assays:
Type in all cases: cell-based
[1] = tested on: Haemophilis Influenzae DILL AMP R; experiment: in vitro antibacterial MIC, agar dilution; conditions: organism code WW; 35-37° C., 20 to 24 hours; unit assumed
Procedure: (§1) Representative compounds of the present invention were assayed in vitro for antibacterial activity as follows: Twelve petri dishes containing successive aqueous dilutions of the test compound mixed with 10 mL of sterilized Brain Heart Infusion (BHI) agar (Difco 0418-01-5) were prepared. Each plate was inoculated with 1:100 (or 1:10 for slow-growing strains, such as Micrococcus and Streptococcus) dilutions of up to 32 different microorganisms, using a Steers replicator block. […] In addition, a control plate, using BHI agar containing no test compound, was prepared and incubated at the beginning and end of each test.
(§2) An additional plate containing a compound having known susceptibility patterns for the organisms being tested and belonging to the same antibiotic class as the test compound was also prepared and incubated as a further control, as well as to provide test-to-test comparability.
(§3) After incubation, each plate was visually inspected. The minimum inhibitory concentration (MIC) was defined as the lowest concentration of drug yielding no growth, a slight haze, or sparsely isolated colonies on the inoculum spot as compared to the growth control.

[2] = tested on: Streptococcus Pheumoniae 5649; experiment: in vitro antibacterial MIC, agar dilution; conditions: organism code ZZA; 35-37° C., 20 to 24 hours; unit assumed
Procedure: as §1, §2, §3

Escherichia coli SS = experiment: in vitro antibacterial MIC, agar dilution; conditions: organism code RR; 35-37° C., 20 to 24 hours; unit assumed
Procedure: as §1, §2, §3

[3] = tested on: Streptococcus Pheumoniae 5979; experiment: in vitro antibacterial MIC, agar dilution; conditions: organism code ZZ; 35-37° C., 20 to 24 hours; unit assumed
Procedure: as §1, §2, §3

[4] = tested on: Enterococcus faecium ATCC 8Q43; experiment: in vitro antibacterial MIC, agar dilution; conditions: organism code II; 35-37° C., 20 to 24 hours; unit assumed
Procedure: as §1, §2, §3

[5] = tested on: Staphylococcus epidermidis 3519; experiment: in vitro antibacterial MIC, agar dilution; conditions: organism code HH; 35-37° C., 20 to 24 hours; unit assumed
Procedure: as §1, §2, §3

[6] = tested on: Staphylococcus aureus CMX 553; experiment: in vitro antibacterial MIC, agar dilution; conditions: organism code FF; 35-37° C., 20 to 24 hours; unit assumed
Procedure: as §1, §2, §3

[7] = tested on: Streptococcus pyogenes EES61; experiment: in vitro antibacterial MIC, agar dilution; conditions: organism code LL; 35-37° C., 20 to 24 hours; unit assumed
Procedure: as §1, §2, §3

[8] = tested on: Streptococcus bovis A-5169; experiment: in vitro antibacterial MIC, agar dilution; conditions: organism code JJ; 35-37° C., 20 to 24 hours; unit assumed
Procedure: as §1, §2, §3

[9] = tested on: Staphylococcus aureus A5177; experiment: in vitro antibacterial MIC, agar dilution; conditions: organism code BB; 35-37° C., 20 to 24 hours; unit assumed
Procedure: as §1, §2, §3

[10] = tested on: Staphylococcus aureus NCTC10649M; experiment: in vitro antibacterial MIC, agar dilution; conditions: organism code EE; 35-37° C., 20 to 24 hours; unit assumed
Procedure: as §1, §2, §3

[11] = tested on: Micrococcus luteus ATCC 9341; experiment: in vitro antibacterial MIC, agar dilution; conditions: organism code OO; 35-37° C., 20 to 24 hours; unit assumed
Procedure: as §1, §2, §3

[12] = tested on: Nocardia Asteroides ATCC9970; experiment: in vitro antibacterial MIC, agar dilution; conditions: organism code VV; 35-37° C., 20 to 24 hours; unit assumed
Procedure: as §1, §2, §3

[13] = tested on: Mycobacterium smegmatis ATCC 114; experiment: in vitro antibacterial MIC, agar dilution; conditions: organism code UU; 35-37° C., 20 to 24 hours; unit assumed
Procedure: as §1, §2, §3

[14] = tested on: Streptococcus pyogenes PIU 2548; experiment: in vitro antibacterial MIC, agar dilution; conditions: organism code NN; 35-37° C., 20 to 24 hours; unit assumed
Procedure: as §1, §2, §3

[15] = tested on: Staphylococcus aureus CMX 642A; experiment: in vitro antibacterial MIC, agar dilution; conditions: organism code DD; 35-37° C., 20 to 24 hours; unit assumed
Procedure: as §1, §2, §3

[16] = tested on: Micrococcus luteus ATCC 4698; experiment: in vitro antibacterial MIC, agar dilution; conditions: organism code PP; 35-37° C., 20 to 24 hours; unit assumed
Procedure: as §1, §2, §3

[17] = tested on: Streptococcus agalactiae CMX 508; experiment: in vitro antibacterial MIC, agar dilution; conditions: organism code KK; 35-37° C., 20 to 24 hours; unit assumed
Procedure: as §1, §2, §3

[18] = tested on: Staphylococcus aureus ATCC 6538P; experiment: in vitro antibacterial MIC, agar dilution (BHI agar, Steers replicator); conditions: organism code AA; 35-37° C., 20 to 24 hours; unit assumed
Procedure: as §1, §2, §3

[19] = tested on: Streptococcus pyogenes 930; experiment: in vitro antibacterial MIC, agar dilution; conditions: organism code MM; 35-37° C., 20 to 24 hours; unit assumed
Procedure: as §1, §2, §3

SMILES	MIC [1]	MIC [2]	MIC (Escherichia coli SS)	MIC [3]	MIC [4]	MIC [5]	MIC [6]	MIC [7]	MIC [8]	MIC [9]	MIC [10]	MIC [11]	MIC [12]	MIC [13]	MIC [14]	MIC [15]	MIC [16]	MIC [17]	MIC [18]	MIC [19]
CC[C@H]1OC(=O)[C@H](C)[C@@H](O[C@H]2C[C@@](C)(OC)[C@@H](O)[C@H](C)O2)[C@H](C)[C@@H](O[C@@H]2O[C@H](C)C[C@H](N(C)C)[C@H]2O)[C@@]2(C)C[C@@H](C)C(=O)[C@H](C)[C@H]3N(CCNCc4cccc(c4)C=CCO2)C(=O)O[C@]13C [Example 11]	32 µg/mL (≈ 34.4 µM)	32 µg/mL (≈ 34.4 µM)	6.2 µg/mL (≈ 6.67 µM)	> 128 µg/mL	0.2 µg/mL (≈ 0.215 µM)	–	–	–	–	–	–	–	–	–	–	–	–	–	–	–
CC[C@H]1OC(=O)[C@H](C)[C@@H](O[C@H]2C[C@@](C)(OC)[C@@H](O)[C@H](C)O2)[C@H](C)[C@@H](O[C@@H]2O[C@H](C)C[C@H](N(C)C)[C@H]2O)[C@@]2(C)C[C@@H](C)C(=O)[C@H](C)[C@H]3N(CCNC(=O)Cc4ccccc4C=CCO2)C(=O)O[C@]13C [Example 6]	8 µg/mL (≈ 8.35 µM)	16 µg/mL (≈ 16.7 µM)	3.1 µg/mL (≈ 3.24 µM)	> 128 µg/mL	0.39 µg/mL (≈ 0.407 µM)	0.78 µg/mL (≈ 0.814 µM)	0.78 µg/mL (≈ 0.814 µM)	0.2 µg/mL (≈ 0.209 µM)	0.1 µg/mL (≈ 0.104 µM)	12.5 µg/mL (≈ 13 µM)	1.56 µg/mL (≈ 1.63 µM)	0.1 µg/mL (≈ 0.104 µM)	0.39 µg/mL (≈ 0.407 µM)	0.39 µg/mL (≈ 0.407 µM)	12.5 µg/mL (≈ 13 µM)	1.56 µg/mL (≈ 1.63 µM)	0.78 µg/mL (≈ 0.814 µM)	0.1 µg/mL (≈ 0.104 µM)	0.78 µg/mL (≈ 0.814 µM)	–
CC[C@H]1OC(=O)[C@H](C)C(=O)[C@H](C)[C@@H](O[C@@H]2O[C@H](C)C[C@H](N(C)C)[C@H]2O)[C@@]2(C)C[C@@H](C)C(=O)[C@H](C)[C@H]3N(CCOCc4ccccc4C=CCO2)C(=O)O[C@]13C [Example 12]	16 µg/mL (≈ 20.8 µM)	1 µg/mL (≈ 1.3 µM)	1.56 µg/mL (≈ 2.02 µM)	128 µg/mL (≈ 166 µM)	0.1 µg/mL (≈ 0.13 µM)	0.78 µg/mL (≈ 1.01 µM)	0.78 µg/mL (≈ 1.01 µM)	–	–	0.78 µg/mL (≈ 1.01 µM)	0.78 µg/mL (≈ 1.01 µM)	–	0.78 µg/mL (≈ 1.01 µM)	0.78 µg/mL (≈ 1.01 µM)	–	0.78 µg/mL (≈ 1.01 µM)	–	–	0.78 µg/mL (≈ 1.01 µM)	50 µg/mL (≈ 64.9 µM)
CC[C@H]1OC(=O)[C@H](C)[C@@H](O[C@H]2C[C@@](C)(OC)[C@@H](O)[C@H](C)O2)[C@H](C)[C@@H](O[C@@H]2O[C@H](C)C[C@H](N(C)C)[C@H]2O)[C@@]2(C)C[C@@H](C)C(=O)[C@H](C)[C@H]3N(CCNC(=O)c4ccccc4C=CCO2)C(=O)O[C@]13C [Example 4]	16 µg/mL (≈ 16.9 µM)	16 µg/mL (≈ 16.9 µM)	6.2 µg/mL (≈ 6.57 µM)	> 128 µg/mL	0.39 µg/mL (≈ 0.413 µM)	1.56 µg/mL (≈ 1.65 µM)	1.56 µg/mL (≈ 1.65 µM)	0.39 µg/mL (≈ 0.413 µM)	–	–	–	–	0.2 µg/mL (≈ 0.212 µM)	–	12.5 µg/mL (≈ 13.2 µM)	1.56 µg/mL (≈ 1.65 µM)	1.56 µg/mL (≈ 1.65 µM)	–	1.56 µg/mL (≈ 1.65 µM)	–
CC[C@H]1OC(=O)[C@H](C)[C@@H](O[C@H]2C[C@@](C)(OC)[C@@H](O)[C@H](C)O2)[C@H](C)[C@@H](O[C@@H]2O[C@H](C)C[C@H](N(C)C)[C@H]2O)[C@@]2(C)C[C@@H](C)C(=O)[C@H](C)[C@H]3N(CCCCO2)C(=O)O[C@]13C [Example 15]	32 µg/mL (≈ 39.4 µM)	16 µg/mL (≈ 19.7 µM)	–	> 128 µg/mL	0.1 µg/mL (≈ 0.123 µM)	–	–	–	0.05 µg/mL (≈ 0.0615 µM)	–	–	–	–	–	–	–	–	–	–	–
CC[C@H]1OC(=O)[C@H](C)[C@@H](O[C@H]2C[C@@](C)(OC)[C@@H](O)[C@H](C)O2)[C@H](C)[C@@H](O[C@@H]2O[C@H](C)C[C@H](N(C)C)[C@H]2O)[C@@]2(C)C[C@@H](C)C(=O)[C@H](C)[C@H]3N(CCC=CCO2)C(=O)O[C@]13C [Example 17]	8 µg/mL (≈ 9.7 µM)	8 µg/mL (≈ 9.7 µM)	–	> 128 µg/mL	0.05 µg/mL (≈ 0.0606 µM)	0.2 µg/mL (≈ 0.242 µM)	0.1 µg/mL (≈ 0.121 µM)	0.02 µg/mL (≈ 0.0242 µM)	–	–	0.2 µg/mL (≈ 0.242 µM)	0.02 µg/mL (≈ 0.0242 µM)	0.02 µg/mL (≈ 0.0242 µM)	0.2 µg/mL (≈ 0.242 µM)	–	0.2 µg/mL (≈ 0.242 µM)	0.1 µg/mL (≈ 0.121 µM)	–	0.1 µg/mL (≈ 0.121 µM)	–
CC[C@H]1OC(=O)[C@H](C)C(=O)[C@H](C)[C@@H](O[C@@H]2O[C@H](C)C[C@H](N(C)C)[C@H]2O)[C@@]2(C)C[C@@H](C)C(=O)[C@H](C)[C@H]3N(CC=CCO2)C(=O)O[C@]13C [Example 16]	32 µg/mL (≈ 49.2 µM)	–	0.78 µg/mL (≈ 1.2 µM)	> 128 µg/mL	0.2 µg/mL (≈ 0.307 µM)	0.39 µg/mL (≈ 0.599 µM)	0.39 µg/mL (≈ 0.599 µM)	0.2 µg/mL (≈ 0.307 µM)	0.2 µg/mL (≈ 0.307 µM)	0.39 µg/mL (≈ 0.599 µM)	0.39 µg/mL (≈ 0.599 µM)	0.2 µg/mL (≈ 0.307 µM)	0.39 µg/mL (≈ 0.599 µM)	6.2 µg/mL (≈ 9.53 µM)	0.39 µg/mL (≈ 0.599 µM)	0.39 µg/mL (≈ 0.599 µM)	0.39 µg/mL (≈ 0.599 µM)	0.2 µg/mL (≈ 0.307 µM)	0.39 µg/mL (≈ 0.599 µM)	–
CC[C@H]1OC(=O)[C@H](C)[C@@H](O[C@H]2C[C@@](C)(OC)[C@@H](OC(C)=O)[C@H](C)O2)[C@H](C)[C@@H](O[C@@H]2O[C@H](C)C[C@H](N(C)C)[C@H]2O)[C@@]2(C)C[C@@H](C)C(=O)[C@H](C)[C@H]3N(CCNCc4cccc(c4)C=CCO2)C(=O)O[C@]13C [Example 10]	–	8 µg/mL (≈ 8.23 µM)	6.2 µg/mL (≈ 6.38 µM)	–	0.78 µg/mL (≈ 0.802 µM)	6.2 µg/mL (≈ 6.38 µM)	6.2 µg/mL (≈ 6.38 µM)	0.78 µg/mL (≈ 0.802 µM)	0.39 µg/mL (≈ 0.401 µM)	25 µg/mL (≈ 25.7 µM)	6.2 µg/mL (≈ 6.38 µM)	0.39 µg/mL (≈ 0.401 µM)	1.56 µg/mL (≈ 1.6 µM)	0.39 µg/mL (≈ 0.401 µM)	6.2 µg/mL (≈ 6.38 µM)	6.2 µg/mL (≈ 6.38 µM)	1.56 µg/mL (≈ 1.6 µM)	0.39 µg/mL (≈ 0.401 µM)	6.2 µg/mL (≈ 6.38 µM)	25 µg/mL (≈ 25.7 µM)
CC[C@H]1OC(=O)[C@H](C)[C@@H](O[C@H]2C[C@@](C)(OC)[C@@H](O)[C@H](C)O2)[C@H](C)[C@@H](O[C@@H]2O[C@H](C)C[C@H](N(C)C)[C@H]2O)[C@@]2(C)C[C@@H](C)C(=O)[C@H](C)[C@H]3N(CC(O)CC=CCO2)C(=O)O[C@]13C (some centres unmarked) [Example 19]	8 µg/mL (≈ 9.36 µM)	16 µg/mL (≈ 18.7 µM)	–	> 128 µg/mL	0.1 µg/mL (≈ 0.117 µM)	–	–	0.05 µg/mL (≈ 0.0585 µM)	0.02 µg/mL (≈ 0.0234 µM)	–	–	0.05 µg/mL (≈ 0.0585 µM)	0.05 µg/mL (≈ 0.0585 µM)	–	12.5 µg/mL (≈ 14.6 µM)	–	–	0.05 µg/mL (≈ 0.0585 µM)	–	–
